Consider seven molecules from PMC7154053, “Chemical, Metabolic, and Cellular Characterization of a FtsZ Inhibitor Effective Against Burkholderia cenocepacia” (Frontiers in Microbiology, 2020).

In brackets after ≈: the same amount, converted by molar mass. Read-outs that look alike come from different tables or passages of the source. A value given as a limit tells only on which side of the number the result lay.

In data set [1] the test system is P. aeruginosa PAO1. Nature of the data set: MIC, 2-fold microdilution, resazurin method. It counts as cell-based. The following applies: Pseudomonas aeruginosa, PAO1. The procedure: (§1) Burkholderia cenocepacia strains, Escherichia coli ATCC 25922, Pseudomonas aeruginosa PAO1, and Staphylococcus aureus ATCC 25923 were grown in Luria-Bertani (LB) medium (Difco), if not differently specified, with shaking at 200 rpm, or on LB agar, at 37°C.
(§2) The microtiter plates were incubated at 37°C for 48 (for B. cenocepacia) or 24 h (for all the other strains) and growth was determined by the resazurin method (Martin et al., [2006]). A solution of resazurin sodium salt (Sigma Aldrich) was prepared at 0.01% in distilled water and filter-sterilized. Thirty microliter of resazurin solution were added to each well after 1 or 2 days of incubation at 37°C, and the microtiters were re-incubated at the same temperature for 4 h. The MIC was defined as the lowest concentration of the drug that prevented a change in color from blue to pink, which indicates bacterial growth.
(§3) Three independent biological replicates were used for each MIC determination.
(In general: Broth dilution looks for growth in wells or tubes with falling amounts of substance.)

In data set [2] the test system is E. coli ATCC 25922. Description: MIC, 2-fold microdilution, resazurin method. The data set is classed as cell-based. The following applies: Escherichia coli, ATCC25922. The procedure: as §1, §2, §3
Data set [3] has as its system S. aureus ATCC 25923. Nature of the data set: MIC, 2-fold microdilution, resazurin method. The data set is classed as cell-based, Staphylococcus aureus. The following applies: for MIC: Staphylococcus aureus, ATCC25923; for spectrum of activity, in words: S. aureus vs Gram-negative species. The protocol:
as §1, §2, §3

Data set [4] deals with B. cenocepacia J2315. Nature of the data set: MIC, 2-fold microdilution, resazurin method. The data set is classed as cell-based, Burkholderia cenocepacia. The settings on record: for MIC: Burkholderia cenocepacia, J2315; for activity compared with C109, in words: SAR statements, against both bacteria and the purified enzyme. The procedure: as §1, §2, §3
In data set [5] the target is Burkholderia cenocepacia purified FtsZ protein (Burkholderia cenocepacia, UniProt B4E5Y7). Nature of the data set: biochemical. The data set is classed as biochemical. The following applies: for Inhibition of Bc FtsZ At 100 μM: 100 μM compound; for Inhibition of Bc FtsZ At 100 μM / Inhibits B. cenocepacia FtsZ GTPase at 100µM?: Yes/No; for Inhibits B. cenocepacia FtsZ GTPase at 100µM?: Supplementary Table 1. The procedure:
All the recombinant FtsZ proteins were expressed at 20°C overnight in E. coli BL21(DE3) cells, upon induction with 0.5 mM IPTG, and purified using the same protocol assessed for the wild-type B. cenocepacia FtsZ (Hogan et al., [2018]).
GTPase enzyme activity was determined using a pyruvate kinase/L-lactic dehydrogenase (PK/LDH) spectrophotometric coupled assay (Ingerman and Nunnari, [2005]). The assays were performed at 30°C, in a reaction mixture containing […] Hepes pH 7.5, 5 mM MgCl2, 5 mM KCl, 10 U PK/LDH, 0.25 mM NADH, 0.25 mM PEP, and 5–10 μM FtsZ, and initiated by the addition of 0.5 mM GTP. Alternatively, GTPase activity was determined by measuring the release of phosphate using the malachite green assay (Baykov et al., [1988]).
(1) A[I]=A[0]×(1-[I]/[I]+IC50)
where A[I] is the enzyme activity at inhibitor concentration [I] and A[0] is the enzyme activity without inhibitor.

[6] abbreviates: LB, 24 h, read-out: MIC P. aeruginosa PAO1.
Where [7] appears, read: Supplementary Table 1, read-out: MIC (µg/ml) P. aeruginosa PAO1.
The mark [8] stands for this setting: LB, 24 h, read-out: MIC E. coli 25922.
The mark [9] stands for this setting: Supplementary Table 1, read-out: MIC (µg/ml) E. coli 25922.
Setting [10] is: LB, 24 h, read-out: MIC S. aureus 25923.
The mark [11] stands for this setting: Supplementary Table 1, read-out: MIC (µg/ml) S. aureus 25923.
The mark [12] stands for this setting: LB, 48 h, read-out: MIC B. cenocepacia J2315.
Setting [13] is: Supplementary Table 1, read-out: MIC (µg/ml) B. cenocepacia J2315.

Chain of Burkholderia cenocepacia purified FtsZ protein (B4E5Y7 entry or part of it): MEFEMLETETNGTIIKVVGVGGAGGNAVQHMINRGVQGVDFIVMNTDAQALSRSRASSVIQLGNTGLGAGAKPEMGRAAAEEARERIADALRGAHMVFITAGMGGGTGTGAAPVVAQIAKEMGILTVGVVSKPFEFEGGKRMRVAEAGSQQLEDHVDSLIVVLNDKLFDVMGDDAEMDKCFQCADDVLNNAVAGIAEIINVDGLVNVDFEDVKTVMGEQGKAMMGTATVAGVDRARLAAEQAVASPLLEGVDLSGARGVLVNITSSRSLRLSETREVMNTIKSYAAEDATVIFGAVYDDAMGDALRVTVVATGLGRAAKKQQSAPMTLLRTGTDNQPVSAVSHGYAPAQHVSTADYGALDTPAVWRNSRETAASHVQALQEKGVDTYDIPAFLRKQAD

The term melting point denotes the temperature, or range, at which the solid turns liquid. `CCCCCSc1ccc2nsnc2c1[N+](=O)[O-]` [compound 10726015] gave a melting point of 116 to 118 °C. Further, the MIC in data set [1] (setting [6]) is above 128 µg/mL. For the same molecule, the MIC in data set [1] (setting [7]) was above 128 µg/mL. Also, the MIC in data set [2] (setting [8]) is above 512 µg/mL. The MIC in data set [2] (setting [9]) is above 512 µg/mL. In addition, the MIC in data set [3] (setting [10]) came out at 512 µg/mL (≈ 1810 µM). The MIC in data set [3] (setting [11]) came to 512 µg/mL (≈ 1810 µM). Also, the MIC in data set [4] (setting [12]) is above 64 µg/mL. Moreover, the MIC in data set [4] (setting [13]) was above 64 µg/mL. In data set [5], the “Inhibition of Bc FtsZ At 100 μM” value is listed as “No” and the “Inhibits B. cenocepacia FtsZ GTPase at 100µM?” value is “No”.
As to `CCOC(=O)COc1ccc2nsnc2c1[N+](=O)[O-]` [compound 11726041], the melting point was in the range of 131 to 133 °C. Besides, the MIC in data set [2] (setting [8]) is above 512 µg/mL. In data set [2] (setting [9]), the MIC was above 512 µg/mL. Further, the MIC in data set [3] (setting [10]) is above 256 µg/mL. For the same molecule, the MIC in data set [3] (setting [11]) is above 256 µg/mL. In addition, the MIC in data set [4] (setting [12]) is above 256 µg/mL. For the same molecule, the MIC in data set [4] (setting [13]) was above 256 µg/mL. For the same molecule, the “activity compared with C109, in words” value in data set [4] is “completely loss of activity”. Also, in data set [5], the “Inhibition of Bc FtsZ At 100 μM” value was “No” and the “Inhibits B. cenocepacia FtsZ GTPase at 100µM?” value is listed as “No”.
The term IC50 denotes the concentration at which inhibition is half-maximal. The low end stands for greater potency, the high end for weaker potency. Take `CC(C)Oc1cc(SC#N)c2nsnc2c1[N+](=O)[O-]` [compound 11126010]: the melting point was 116 to 118 °C. Moreover, the MIC in data set [1] (setting [6]) is above 128 µg/mL. Further, in data set [1] (setting [7]), the MIC was above 128 µg/mL. The MIC in data set [2] (setting [8]) is above 512 µg/mL. Further, the MIC in data set [2] (setting [9]) is above 512 µg/mL. In addition, the “spectrum of activity, in words” value in data set [3] is “showed activity only against S. aureus”. For the same molecule, the MIC in data set [3] (setting [10]) turned out to be 4 µg/mL (≈ 13.5 µM). Moreover, in data set [3] (setting [11]), the MIC is 4 µg/mL (≈ 13.5 µM). Moreover, the MIC in data set [4] (setting [12]) was above 128 µg/mL. Moreover, in data set [4] (setting [13]), the MIC was above 128 µg/mL. Also, in data set [5], it took 15 µM to reach half-maximal inhibition (IC50), the “Inhibition of Bc FtsZ At 100 μM” value was “Yes” and the “Inhibits B. cenocepacia FtsZ GTPase at 100µM?” value was “Yes”.
With `CCOc1cc(SC#N)c2nsnc2c1[N+](=O)[O-]` [compound 11026177], the melting point was in the range of 128 to 129 °C. Moreover, in data set [1] (setting [6]), the MIC amounted to 64 µg/mL (≈ 227 µM). In addition, in data set [1] (setting [7]), the MIC is 64 µg/mL (≈ 227 µM). In addition, the MIC in data set [2] (setting [8]) is above 512 µg/mL. Also, in data set [2] (setting [9]), the MIC is above 512 µg/mL. Besides, in data set [3], the “spectrum of activity, in words” value was “showed activity only against S. aureus”. In addition, the MIC in data set [3] (setting [10]) was determined as 4 µg/mL (≈ 14.2 µM). Moreover, the MIC in data set [3] (setting [11]) worked out at 4 µg/mL (≈ 14.2 µM). For the same molecule, the MIC in data set [4] (setting [12]) was above 512 µg/mL. Besides, in data set [4] (setting [13]), the MIC is above 512 µg/mL. In data set [5], the IC50 was determined as 19 µM, the “Inhibition of Bc FtsZ At 100 μM” value is listed as “Yes” and the “Inhibits B. cenocepacia FtsZ GTPase at 100µM?” value is listed as “Yes”.
The molecule `COC(=O)CSc1c(C)cc2nsnc2c1[N+](=O)[O-]` [compound 11926141] came in with a melting point of 172 to 174 °C. Also, the MIC in data set [1] (setting [6]) is above 256 µg/mL. In data set [1] (setting [7]), the MIC is above 256 µg/mL. For the same molecule, the MIC in data set [2] (setting [8]) is above 256 µg/mL. Also, the MIC in data set [2] (setting [9]) is above 256 µg/mL. The MIC in data set [3] (setting [10]) stood at 32 µg/mL (≈ 107 µM). In addition, in data set [3] (setting [11]), the MIC came out at 32 µg/mL (≈ 107 µM). In addition, in data set [4] (setting [12]), the MIC was above 256 µg/mL. Besides, in data set [4] (setting [13]), the MIC is above 256 µg/mL. Also, in data set [5], the IC50 worked out at 100 µM, the “Inhibition of Bc FtsZ At 100 μM” value is “Yes” and the “Inhibits B. cenocepacia FtsZ GTPase at 100µM?” value is reported as “Yes”.
Turning to `O=C(O)CSc1ccc2nsnc2c1[N+](=O)[O-]` [compound 11426177], the melting point was 215 to 217 °C. Moreover, the MIC in data set [2] (setting [8]) was above 512 µg/mL. The MIC in data set [2] (setting [9]) was above 512 µg/mL. In addition, in data set [3] (setting [10]), the MIC was 256 µg/mL (≈ 944 µM). Moreover, the MIC in data set [3] (setting [11]) is 256 µg/mL (≈ 944 µM). Also, the MIC in data set [4] (setting [12]) was above 128 µg/mL. For the same molecule, in data set [4] (setting [13]), the MIC is above 128 µg/mL. The “activity compared with C109, in words” value in data set [4] is recorded as “not active against B. cenocepacia”. Further, in data set [5], the “Inhibition of Bc FtsZ At 100 μM” value is given as “No” and the “Inhibits B. cenocepacia FtsZ GTPase at 100µM?” value is listed as “No”.
The molecule `CCOC(=O)CNc1ccc2nsnc2c1[N+](=O)[O-]` [compound 11726042] had a melting point of 169 to 171 °C. Also, the MIC in data set [2] (setting [8]) is above 512 µg/mL. Also, in data set [2] (setting [9]), the MIC was above 512 µg/mL. Also, the MIC in data set [3] (setting [10]) was above 256 µg/mL. For the same molecule, the MIC in data set [3] (setting [11]) was above 256 µg/mL. Besides, in data set [4] (setting [12]), the MIC was above 256 µg/mL. Besides, the MIC in data set [4] (setting [13]) is above 256 µg/mL. Also, the “activity compared with C109, in words” value in data set [4] was “completely loss of activity”. In data set [5], the “Inhibition of Bc FtsZ At 100 μM” value is reported as “No” and the “Inhibits B. cenocepacia FtsZ GTPase at 100µM?” value is “No”.
